Assay results from paper PMC10838953.

Columns and labels:
[1] = target: PIK3CB (Homo sapiens, UniProt P42338); assay: biochemical; settings: read-out: %Ctrl @ 2000nM
[2] = target: CHEK1 (Homo sapiens, UniProt O14757); assay: biochemical; settings: read-out: %Ctrl @ 2000nM
[3] = target: OSR1 (Homo sapiens, UniProt O95747); assay: biochemical; settings: read-out: %Ctrl @ 2000nM
[4] = target: PAK7 (Homo sapiens, UniProt Q9P286); assay: biochemical; settings: read-out: %Ctrl @ 2000nM
[5] = target: CTK (Homo sapiens, UniProt P42679); assay: biochemical; settings: read-out: %Ctrl @ 2000nM
[6] = target: RET(V804M) (Homo sapiens, UniProt P07949, V804M); assay: biochemical; settings: read-out: %Ctrl @ 2000nM
[7] = tested on: 468 kinases
[8] = target: PRKCI (Homo sapiens, UniProt P41743); assay: biochemical; settings: read-out: %Ctrl @ 2000nM
[9] = target: CAMKK2 (Homo sapiens, UniProt Q96RR4); assay: biochemical; settings: read-out: %Ctrl @ 2000nM
[10] = target: ACVR1 (Homo sapiens, UniProt Q04771); assay: biochemical; settings: read-out: %Ctrl @ 2000nM
[11] = target: FGFR1 (Homo sapiens, UniProt P11362); assay: biochemical; settings: read-out: %Ctrl @ 2000nM
[12] = target: ASK1 (Homo sapiens, UniProt Q99683); assay: biochemical; settings: read-out: %Ctrl @ 2000nM
[13] = target: SGK3 (Homo sapiens, UniProt Q96BR1); assay: biochemical; settings: read-out: %Ctrl @ 2000nM
[14] = target: RIPK2 (Homo sapiens, UniProt O43353); assay: biochemical; settings: read-out: %Ctrl @ 2000nM
[15] = target: WNK2 (Homo sapiens, UniProt Q9Y3S1); assay: biochemical; settings: read-out: %Ctrl @ 2000nM
[16] = target: ACVR2B (Homo sapiens, UniProt Q13705); assay: biochemical; settings: read-out: %Ctrl @ 2000nM
[17] = target: MAP4K3 (Homo sapiens, UniProt Q8IVH8); assay: biochemical; settings: read-out: %Ctrl @ 2000nM
[18] = target: GRK1 (Homo sapiens, UniProt Q15835); assay: biochemical; settings: read-out: %Ctrl @ 2000nM
[19] = target: STK33 (Homo sapiens, UniProt Q9BYT3); assay: biochemical; settings: read-out: %Ctrl @ 2000nM
[20] = target: RSK1(Kin.Dom.2-C-terminal) (Homo sapiens, UniProt Q15418); assay: biochemical; settings: read-out: %Ctrl @ 2000nM
[21] = target: EPHA4 (Homo sapiens, UniProt P54764); assay: biochemical; settings: read-out: %Ctrl @ 2000nM
[22] = target: DRAK1 (Homo sapiens, UniProt Q9UEE5); assay: biochemical; settings: read-out: %Ctrl @ 2000nM
[23] = target: GRK7 (Homo sapiens, UniProt Q8WTQ7); assay: biochemical; settings: read-out: %Ctrl @ 2000nM
[24] = target: PKN2 (Homo sapiens, UniProt Q16513); assay: biochemical; settings: read-out: %Ctrl @ 2000nM
[25] = target: PHKG1 (Homo sapiens, UniProt Q16816); assay: biochemical; settings: read-out: %Ctrl @ 2000nM
[26] = tested on: survivin; settings: 786-O cells; 2.5-15 μM; 48 h
[27] = target: ABL1(F317I)-nonphosphorylated (Homo sapiens, UniProt P00519, F317I); assay: biochemical; settings: read-out: %Ctrl @ 2000nM
[28] = target: NDR2 (Homo sapiens, UniProt Q9Y2H1); assay: biochemical; settings: read-out: %Ctrl @ 2000nM
[29] = target: HPK1 (Homo sapiens, UniProt Q92918); assay: biochemical; settings: read-out: %Ctrl @ 2000nM
[30] = target: JAK1(JH2domain-pseudokinase) (Homo sapiens, UniProt P23458); assay: biochemical; settings: read-out: %Ctrl @ 2000nM
[31] = target: WNK4 (Homo sapiens, UniProt Q96J92); assay: biochemical; settings: read-out: %Ctrl @ 2000nM
[32] = target: SBK1 (Homo sapiens, UniProt Q52WX2); assay: biochemical; settings: read-out: %Ctrl @ 2000nM
[33] = target: TESK1 (Homo sapiens, UniProt Q15569); assay: biochemical; settings: read-out: %Ctrl @ 2000nM
[34] = target: PIK3CA(Q546K) (Homo sapiens, UniProt P42336, Q546K); assay: biochemical; settings: read-out: %Ctrl @ 2000nM
[35] = target: BLK (Homo sapiens, UniProt P51451); assay: biochemical; settings: read-out: %Ctrl @ 2000nM
[36] = tested on: 786-O, A549, MDA-MB-231, OVCAR-3, U373 MG
[37] = target: FLT3-autoinhibited (Homo sapiens, UniProt P36888); assay: biochemical; settings: read-out: %Ctrl @ 2000nM
[38] = target: ASK2 (Homo sapiens, UniProt O95382); assay: biochemical; settings: read-out: %Ctrl @ 2000nM
[39] = target: ABL1(E255K)-phosphorylated (Homo sapiens, UniProt P00519, E255K); assay: biochemical; settings: read-out: %Ctrl @ 2000nM
[40] = target: CSNK1A1 (Homo sapiens, UniProt P48729); assay: biochemical; settings: read-out: %Ctrl @ 2000nM
[41] = target: CSNK2A2 (CK2α′) (Homo sapiens, UniProt P19784); assay: biochemical
[42] = target: KIT(V559D,T670I) (Homo sapiens, UniProt P10721, T670I/V559D); assay: biochemical; settings: read-out: %Ctrl @ 2000nM

Chain of CSNK2A2 (CK2α′) (P19784 whole entry): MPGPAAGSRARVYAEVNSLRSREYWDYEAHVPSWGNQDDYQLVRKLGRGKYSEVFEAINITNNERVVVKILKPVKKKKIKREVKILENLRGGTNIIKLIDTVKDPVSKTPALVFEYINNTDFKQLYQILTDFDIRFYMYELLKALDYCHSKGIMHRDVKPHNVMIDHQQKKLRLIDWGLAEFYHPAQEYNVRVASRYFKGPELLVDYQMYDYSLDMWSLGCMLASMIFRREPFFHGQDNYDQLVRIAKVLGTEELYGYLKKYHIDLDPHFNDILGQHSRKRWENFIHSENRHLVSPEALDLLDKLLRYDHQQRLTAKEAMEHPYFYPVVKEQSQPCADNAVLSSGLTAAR
Chain of GRK1 (Q15835 whole entry): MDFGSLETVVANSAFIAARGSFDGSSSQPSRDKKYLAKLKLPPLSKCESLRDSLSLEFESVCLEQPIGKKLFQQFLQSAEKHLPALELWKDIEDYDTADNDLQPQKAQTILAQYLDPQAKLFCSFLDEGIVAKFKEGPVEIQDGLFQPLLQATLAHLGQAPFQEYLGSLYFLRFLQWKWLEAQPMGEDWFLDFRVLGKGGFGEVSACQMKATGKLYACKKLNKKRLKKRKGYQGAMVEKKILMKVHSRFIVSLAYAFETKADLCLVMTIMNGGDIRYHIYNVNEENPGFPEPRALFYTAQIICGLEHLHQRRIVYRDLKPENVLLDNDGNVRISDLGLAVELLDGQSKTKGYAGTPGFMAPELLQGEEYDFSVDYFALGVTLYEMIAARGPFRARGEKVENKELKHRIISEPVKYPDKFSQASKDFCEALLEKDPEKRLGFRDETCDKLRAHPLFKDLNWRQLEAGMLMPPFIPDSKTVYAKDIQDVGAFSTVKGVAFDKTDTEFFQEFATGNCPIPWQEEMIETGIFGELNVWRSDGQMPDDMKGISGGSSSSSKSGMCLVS
Chain of PKN2 (Q16513 whole entry): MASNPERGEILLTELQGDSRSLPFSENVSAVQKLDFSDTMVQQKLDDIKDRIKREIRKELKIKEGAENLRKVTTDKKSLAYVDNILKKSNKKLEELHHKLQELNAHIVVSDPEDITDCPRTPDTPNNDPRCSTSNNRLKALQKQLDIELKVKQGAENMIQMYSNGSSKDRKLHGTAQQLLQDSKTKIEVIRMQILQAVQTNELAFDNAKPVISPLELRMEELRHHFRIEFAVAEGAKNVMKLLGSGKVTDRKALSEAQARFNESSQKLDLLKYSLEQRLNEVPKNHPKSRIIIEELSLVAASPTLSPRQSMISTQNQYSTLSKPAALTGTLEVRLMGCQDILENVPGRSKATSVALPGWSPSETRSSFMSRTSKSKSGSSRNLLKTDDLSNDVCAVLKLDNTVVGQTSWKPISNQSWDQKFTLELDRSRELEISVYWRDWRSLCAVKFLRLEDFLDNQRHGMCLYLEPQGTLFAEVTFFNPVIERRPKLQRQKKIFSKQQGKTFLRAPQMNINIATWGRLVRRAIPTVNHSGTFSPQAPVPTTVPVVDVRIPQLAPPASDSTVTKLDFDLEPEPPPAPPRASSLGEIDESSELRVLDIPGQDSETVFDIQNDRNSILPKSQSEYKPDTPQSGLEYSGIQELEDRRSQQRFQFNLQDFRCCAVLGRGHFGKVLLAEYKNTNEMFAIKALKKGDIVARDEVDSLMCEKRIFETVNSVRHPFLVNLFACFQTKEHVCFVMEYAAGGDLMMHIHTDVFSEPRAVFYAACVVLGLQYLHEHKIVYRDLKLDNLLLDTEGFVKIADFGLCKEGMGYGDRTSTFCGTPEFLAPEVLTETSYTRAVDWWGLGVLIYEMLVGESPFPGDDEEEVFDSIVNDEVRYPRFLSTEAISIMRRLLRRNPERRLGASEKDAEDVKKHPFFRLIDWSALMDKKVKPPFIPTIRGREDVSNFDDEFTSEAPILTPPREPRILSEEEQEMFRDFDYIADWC
Chain of PHKG1 (Q16816 whole entry): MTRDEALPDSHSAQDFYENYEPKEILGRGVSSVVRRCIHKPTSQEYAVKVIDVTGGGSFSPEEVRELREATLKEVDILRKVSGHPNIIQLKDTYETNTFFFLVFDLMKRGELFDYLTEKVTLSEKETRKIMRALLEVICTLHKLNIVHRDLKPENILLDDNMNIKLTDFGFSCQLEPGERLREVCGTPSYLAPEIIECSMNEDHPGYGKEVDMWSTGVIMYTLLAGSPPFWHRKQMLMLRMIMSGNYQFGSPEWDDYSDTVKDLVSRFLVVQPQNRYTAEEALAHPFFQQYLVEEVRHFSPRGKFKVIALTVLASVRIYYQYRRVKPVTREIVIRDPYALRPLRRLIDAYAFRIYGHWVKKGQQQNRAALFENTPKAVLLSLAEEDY
Chain of ABL1(F317I)-nonphosphorylated (P00519 whole entry F317I): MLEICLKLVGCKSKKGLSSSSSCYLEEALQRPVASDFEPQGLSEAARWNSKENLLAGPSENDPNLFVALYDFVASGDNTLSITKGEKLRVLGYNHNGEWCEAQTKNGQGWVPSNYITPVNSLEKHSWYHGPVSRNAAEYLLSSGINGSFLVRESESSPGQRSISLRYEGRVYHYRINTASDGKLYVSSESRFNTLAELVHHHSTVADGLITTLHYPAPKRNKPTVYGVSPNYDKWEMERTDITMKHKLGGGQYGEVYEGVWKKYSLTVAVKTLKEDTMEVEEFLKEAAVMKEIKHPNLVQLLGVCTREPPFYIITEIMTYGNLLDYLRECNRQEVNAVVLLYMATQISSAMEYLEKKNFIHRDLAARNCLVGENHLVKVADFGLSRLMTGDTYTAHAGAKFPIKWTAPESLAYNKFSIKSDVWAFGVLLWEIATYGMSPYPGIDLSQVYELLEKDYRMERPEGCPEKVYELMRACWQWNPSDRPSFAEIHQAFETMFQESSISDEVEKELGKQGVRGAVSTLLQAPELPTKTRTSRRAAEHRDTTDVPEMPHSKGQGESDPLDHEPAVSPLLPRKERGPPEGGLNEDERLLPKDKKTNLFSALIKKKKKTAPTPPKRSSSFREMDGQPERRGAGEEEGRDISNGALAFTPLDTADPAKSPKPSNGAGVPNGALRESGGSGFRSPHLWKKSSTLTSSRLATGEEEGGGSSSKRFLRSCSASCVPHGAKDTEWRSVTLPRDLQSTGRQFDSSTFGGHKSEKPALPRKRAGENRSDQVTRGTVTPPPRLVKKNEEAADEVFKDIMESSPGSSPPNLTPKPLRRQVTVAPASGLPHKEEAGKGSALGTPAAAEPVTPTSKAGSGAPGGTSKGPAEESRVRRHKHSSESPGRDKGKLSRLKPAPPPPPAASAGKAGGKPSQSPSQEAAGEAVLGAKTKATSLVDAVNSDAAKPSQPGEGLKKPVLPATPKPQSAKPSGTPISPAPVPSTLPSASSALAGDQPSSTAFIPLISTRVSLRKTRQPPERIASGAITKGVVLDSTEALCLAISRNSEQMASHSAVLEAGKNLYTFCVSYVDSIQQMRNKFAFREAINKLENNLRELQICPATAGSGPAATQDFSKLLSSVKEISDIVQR
Chain of EPHA4 (P54764 20-986): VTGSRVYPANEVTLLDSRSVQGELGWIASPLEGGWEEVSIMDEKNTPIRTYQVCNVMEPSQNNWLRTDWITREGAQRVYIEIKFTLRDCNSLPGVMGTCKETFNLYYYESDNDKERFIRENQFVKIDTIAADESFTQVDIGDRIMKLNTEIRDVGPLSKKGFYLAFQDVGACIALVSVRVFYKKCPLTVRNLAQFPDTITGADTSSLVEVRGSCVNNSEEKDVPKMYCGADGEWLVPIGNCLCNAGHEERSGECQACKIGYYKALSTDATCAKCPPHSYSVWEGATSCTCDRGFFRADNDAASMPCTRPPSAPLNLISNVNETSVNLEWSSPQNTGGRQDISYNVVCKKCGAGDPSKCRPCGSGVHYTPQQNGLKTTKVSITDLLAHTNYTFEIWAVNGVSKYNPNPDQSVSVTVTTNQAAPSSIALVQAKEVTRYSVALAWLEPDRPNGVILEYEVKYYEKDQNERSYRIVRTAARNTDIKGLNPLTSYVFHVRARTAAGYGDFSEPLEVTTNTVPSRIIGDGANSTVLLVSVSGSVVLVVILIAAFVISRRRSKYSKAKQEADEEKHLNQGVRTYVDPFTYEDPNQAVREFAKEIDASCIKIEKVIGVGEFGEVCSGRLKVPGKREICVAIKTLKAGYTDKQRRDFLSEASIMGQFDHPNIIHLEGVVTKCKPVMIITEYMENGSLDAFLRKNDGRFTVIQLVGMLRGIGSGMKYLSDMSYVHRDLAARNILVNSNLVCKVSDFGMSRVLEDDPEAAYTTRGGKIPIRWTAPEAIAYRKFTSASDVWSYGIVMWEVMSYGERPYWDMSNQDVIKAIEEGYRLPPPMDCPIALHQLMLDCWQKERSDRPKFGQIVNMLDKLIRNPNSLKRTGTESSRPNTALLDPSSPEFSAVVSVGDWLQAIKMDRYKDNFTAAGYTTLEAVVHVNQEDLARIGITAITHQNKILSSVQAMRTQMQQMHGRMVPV
Chain of DRAK1 (Q9UEE5 whole entry): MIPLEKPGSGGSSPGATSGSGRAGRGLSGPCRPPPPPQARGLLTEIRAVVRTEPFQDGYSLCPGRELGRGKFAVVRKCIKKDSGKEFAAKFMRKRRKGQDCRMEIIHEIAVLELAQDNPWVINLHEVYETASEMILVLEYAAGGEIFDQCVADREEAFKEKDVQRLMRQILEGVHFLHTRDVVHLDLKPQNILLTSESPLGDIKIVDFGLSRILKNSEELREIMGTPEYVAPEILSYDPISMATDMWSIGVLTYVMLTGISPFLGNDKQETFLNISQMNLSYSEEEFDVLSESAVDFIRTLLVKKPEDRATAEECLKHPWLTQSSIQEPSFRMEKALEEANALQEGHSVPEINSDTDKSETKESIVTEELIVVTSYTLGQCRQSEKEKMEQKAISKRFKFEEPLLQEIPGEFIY
Chain of ABL1(E255K)-phosphorylated (P00519 whole entry E255K): as the sequence (P00519 whole entry F317I) above, with E255K, I317F counted along it

`CC(C)COC(=O)c1[nH]c2ccc(F)cc2c1-c1cn(CC2CCN(CCNS(=O)(=O)c3ccc(CC(C)C)cc3)CC2)nn1` [AB668, isobutyl 5-fluoro-3-(1-((1-(2-((4-isobutylphenyl)sulfonamido)ethyl)piperidin-4-yl)methyl)-1H-1,2,3-triazol-4-yl)-1H-indole-2-carboxylate] gave a remaining activity at 2 µM [1] of 90%, a remaining activity at 2 µM [2] of 95% and a remaining activity at 2 µM [3] of 81%. The remaining activity at 2 µM [4] was 85%, the remaining activity at 2 µM [5] was 82% and the remaining activity at 2 µM [6] was 76%. The “Number of Hits S(1)” value [7] was 2, the “Number of Hits S(10)” value [7] was 3 and the “Number of Hits S(35)” value [7] was 4. For the same molecule, the remaining activity at 2 µM [8] was 85%, the remaining activity at 2 µM [9] was 81% and the remaining activity at 2 µM [10] was 100%. It also gave a remaining activity at 2 µM [11] of 81%, a remaining activity at 2 µM [12] of 100% and a remaining activity at 2 µM [13] of 99%. The remaining activity at 2 µM [14] was 83%, the remaining activity at 2 µM [15] was 87% and the remaining activity at 2 µM [16] was 92%. It also gave a remaining activity at 2 µM [17] of 82%, a remaining activity at 2 µM [18] of 80% and a remaining activity at 2 µM [19] of 67%. For the same molecule, the remaining activity at 2 µM [20] was 100%, the remaining activity at 2 µM [21] was 78% and the remaining activity at 2 µM [22] was 100%. It also gave a remaining activity at 2 µM [23] of 97%, a remaining activity at 2 µM [24] of 85% and a remaining activity at 2 µM [25] of 76%. For the same molecule, the expression of survivin [26] was “reduced the expression of survivin”, the remaining activity at 2 µM [27] was 79% and the remaining activity at 2 µM [28] was 100%. It also gave a remaining activity at 2 µM [29] of 92%, a remaining activity at 2 µM [30] of 93% and a remaining activity at 2 µM [31] of 96%. For the same molecule, the remaining activity at 2 µM [32] was 88%, the remaining activity at 2 µM [33] was 95% and the remaining activity at 2 µM [34] was 100%. The remaining activity at 2 µM [35] was 100%, the “cell death in various cancer cells” value [36] was “broad effect on cell death” and the remaining activity at 2 µM [37] was 100%. For the same molecule, the remaining activity at 2 µM [38] was 75%, the remaining activity at 2 µM [39] was 67% and the remaining activity at 2 µM [40] was 96%. The remaining activity at 2 µM ([41]; read-out: %Ctrl @ 2000nM) was 19%, the inhibition at 2 µM ([41]; read-out: inhibition (KINOMEscan profiling)) was 81% and the remaining activity at 2 µM [42] was 93%.
